According to US7943749B2, “Antimicrobial 2-deoxystreptamine compounds” (Isis Pharmaceuticals, Inc., priority 2004, dated 2011):
Where “and” joins values, the source holds several entries; their conditions need not be identical. Identical values can stand only once. Like-named read-outs stand apart in the source and are kept apart here.

Key:
E. Coli = experiment: MIC, E. Coli; format: cell-based; conditions: 24 h;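 also: minimum inhibitory concentration determined in duplicate in 96-well plates, compounds given in 4% aqueous DMSO, with ampicillin and tetracycline as positive controls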
Procedure: (§1) The MIC assays are carried out in 150 μL volume in duplicate in 96-well clear flat-bottom plates. The bacterial suspension from an overnight culture growth in appropriate medium is added to a solution of test compound in 4% DMSO in water. Final bacterial inoculum is approximately 10^5-10^6 CFU/well. […] Both ampicillin and tetracycline are used as antibiotic-positive controls in each screening assay for S. pyogenes, E. coli imp-, E. coli, S. aureus, E. faecalis, K. pneumoniae and P. vulgaris. Ciprofloxacin is used as an antibiotic positive control in each screening assay for P. aeruginosa.

S. Aureus = experiment: MIC, S. Aureus; format: cell-based; conditions: 24 h
Procedure: as §1

[1] = test system: E. coli S30 bacterial extract (pBestLuc luciferase reporter); experiment: Coupled bacterial transcription/translation assay; format: biochemical; conditions: read-out: Trans/trans IC50
Procedure: The DNA template, pBestLuc™ (Promega), is a plasmid containing a reporter gene for firefly luciferase fused to a strong tac promoter and ribosome binding site. Messenger RNA from 1 μg pBestLuc is transcribed and translated in E. coli S30 bacterial extract in the presence or absence of test compound. Compounds are tested in a black 96 well microtiter plate with an assay volume of 35 μL. […] The transcription/translation reaction is incubated for 35 minutes at 37° C. followed by detection of functional luciferase with the addition of 30 μL LucLite™ (Packard). Light output is quantitated on a Packard TopCount.

[2] = target: 16S ribosomal subunit RNA target; experiment: Mass spectrometry based binding assay (FTICR), 16S
Procedure: In a typical experiment, 10 μL of an aqueous solution containing 100 mM ammonium acetate buffer, 2.5 or 5 μM of each RNA, and 33% isopropyl alcohol (to aid ion desolvation) was prepared with different concentrations of each ligand or ligand mixture. Samples were introduced into the electrospray ionization source (negative ionization mode) at 1 μL/min and ions were stored for 1 sec in an RF-only hexapole following desolvation. The abundances were integrated from the respective ions for free RNA and the ligand-RNA complex. The primary (1:1 RNA:ligand) and secondary (1:2 complex, if observed). […] The peak ratios were measured at each concentration, then a plot of complex/free RNA versus concentration of ligand added was fitted to a second (or higher) order binding polynomial to determine the KD.

[3] = range between growth and complete inhibition

Procedure for S. aureus (ATCC 13709): Male ICR mice are fed with autoclaved commercial food pellets and sterile water ad libitum. Animals are inoculated intraperitoneally with 1.0×10^6 CFU/0.5 mL/mouse of S. aureus (ATCC 13709) containing 10% mucin. Ten animals each are randomly assigned to either control or treatment groups. Test compound and gentamycin (included as a positive control) are both administered subcutaneously one and 3 hour after infection. Test compound is administered as an aqueous buffer solution (phosphate buffered saline (PBS), pH=7.4). The data is presented as the number of mice out of the 10 in the group that were not protected from lethal infection.

NCC1OC(OC2C(CO)OC(OC3C(O)C(N)CC(N)C3OC3OC(CO)C(O)C(O)C3N)C2OCCNc2ccccn2)C(N)C(O)C1O (stereo not drawn) [IBIS00561109]
MIC E. Coli. (E. Coli): 12 to 25 µM
MIC S. Aureus (S. Aureus): 1 to 2 µM

NCC1OC(OC2C(CO)OC(OC3C(O)C(N)CC(N)C3OC3OC(CO)C(O)C(O)C3N)C2OCCNC2CCCc3ccccc32)C(N)C(O)C1O (stereo not drawn) [IBIS00561950]
MIC E. Coli. (E. Coli): >10 µM
MIC S. Aureus (S. Aureus): 1.25 to 2.5 µM

NCC1OC(OC2C(CO)OC(OC3C(O)C(N)CC(N)C3OC3OC(CO)C(O)C(O)C3N)C2OCCNCCc2cccnc2)C(N)C(O)C1O (stereo not drawn) [IBIS00560972]
MIC E. Coli. (E. Coli): 6 to 12 µM
MIC S. Aureus (S. Aureus): 0.6-1^ μM

NCC1OC(OC2C(CO)OC(OC3C(O)C(N)CC(N)C3OC3OC(CO)C(O)C(O)C3N)C2OCCNCc2ccc(N)nc2)C(N)C(O)C1O (stereo not drawn) [IBIS00560975]
MIC E. Coli. (E. Coli): 3 to 6 µM
MIC S. Aureus (S. Aureus): 0.3 to 0.6 µM

NCC1OC(OC2C(CO)OC(OC3C(O)C(N)CC(N)C3OC3OC(CO)C(O)C(O)C3N)C2OCCNCCc2ccc(-c3ccccc3)cc2)C(N)C(O)C1O (stereo not drawn) [IBIS00561193]
MIC E. Coli. (E. Coli): 20 to 40 µM
MIC S. Aureus (S. Aureus): 5 to 10 µM

NCC1OC(OC2C(CO)OC(OC3C(O)C(N)CC(N)C3OC3OC(CO)C(O)C(O)C3N)C2OCCNCc2nc3ccccc3[nH]2)C(N)C(O)C1O (stereo not drawn) [IBIS00560797]
MIC E. Coli. (E. Coli; [3]): 6 to 12 µM
IC50 [1]: 0.34 µM
MIC S. Aureus (S. Aureus; [3]): 25 to 50 µM
Kd [2]: 4.1 µM

NCC1OC(OC2C(CO)OC(OC3C(O)C(N)CC(N)C3OC3OC(CO)C(O)C(O)C3N)C2OCCNc2cccnc2)C(N)C(O)C1O (stereo not drawn) [IBIS00560798]
MIC E. Coli. (E. Coli; [3]): 3 to 6 µM
IC50 [1]: 0.08 µM
MIC S. Aureus (S. Aureus; [3]): 0.6-1^ μM
Kd [2]: 0.55 µM

NCC1OC(OC2C(CO)OC(OC3C(O)C(N)CC(N)C3OC3OC(CO)C(O)C(O)C3N)C2OCCNCc2ccnc(N)c2)C(N)C(O)C1O (stereo not drawn) [IBIS00560965]
MIC E. Coli. (E. Coli): 6 to 12 µM
MIC S. Aureus (S. Aureus): 0.6-1^ μM

CN(C)CCOC1C(OC2C(O)C(N)CC(N)C2OC2OC(CO)C(O)C(O)C2N)OC(CO)C1OC1OC(CN)C(O)C(O)C1N (stereo not drawn) [IBIS00560174]
MIC E. Coli. (E. Coli; [3]): 12 to 52 µM
IC50 [1]: 0.21 µM
MIC S. Aureus (S. Aureus; [3]): 6 to 12 µM
Kd [2]: 0.93 µM

NCC1OC(OC2C(CO)OC(OC3C(O)C(N)CC(N)C3OC3OC(CO)C(O)C(O)C3N)C2OCCNCC2CCCNC2)C(N)C(O)C1O (stereo not drawn) [IBIS00560726]
Kd [2]: 0.25 µM and 0.13 µM

NCC1OC(OC2C(CO)OC(OC3C(O)C(N)CC(N)C3OC3OC(CO)C(O)C(O)C3N)C2OCCNCc2ccccc2)C(N)C(O)C1O (stereo not drawn) [IBIS00560974]
MIC E. Coli. (E. Coli): 3 to 6 µM
MIC S. Aureus (S. Aureus): 3 to 5 µM

NCC1OC(OC2C(CO)OC(OC3C(O)C(N)CC(N)C3OC3OC(CO)C(O)C(O)C3N)C2OCCNCCc2ccccc2)C(N)C(O)C1O (stereo not drawn) [IBIS00560973]
MIC E. Coli. (E. Coli): 3 to 6 µM
MIC S. Aureus (S. Aureus): 0.3 to 0.6 µM
number of mice out of the 10 in the group that were not protected from lethal infection (S. aureus (ATCC 13709); 0.1 mg/kg subcutaneously 1 and 3 hour after i.p. infection): 5/10
number of mice out of the 10 in the group that were not protected from lethal infection (S. aureus (ATCC 13709); 0.5 mg/kg subcutaneously 1 and 3 hour after i.p. infection): 0/10
number of mice out of the 10 in the group that were not protected from lethal infection (S. aureus (ATCC 13709); 1 mg/kg subcutaneously 1 and 3 hour after i.p. infection): 0/10
number of mice out of the 10 in the group that were not protected from lethal infection (S. aureus (ATCC 13709); 2 mg/kg subcutaneously 1 and 3 hour after i.p. infection): 0/10
number of mice out of the 10 in the group that were not protected from lethal infection (S. aureus (ATCC 13709); 4.5 mg/kg subcutaneously 1 and 3 hour after i.p. infection): 0/10
number of mice out of the 10 in the group that were not protected from lethal infection (S. aureus (ATCC 13709); 9 mg/kg subcutaneously 1 and 3 hour after i.p. infection): 0/10
number of mice out of the 10 in the group that were not protected from lethal infection (S. aureus (ATCC 13709); 18 mg/kg subcutaneously 1 and 3 hour after i.p. infection): 0/10
number of mice out of the 10 in the group that were not protected from lethal infection (S. aureus (ATCC 13709); 37 mg/kg subcutaneously 1 and 3 hour after i.p. infection): 0/10
number of mice out of the 10 in the group that were not protected from lethal infection (S. aureus (ATCC 13709); 75 mg/kg subcutaneously 1 and 3 hour after i.p. infection): 0/10
prevention of lethal bacterial infection in mice (in words) (S. aureus (ATCC 13709); S. aureus ATCC 13709 i.p., compound s.c.): effective at preventing lethal bacterial infections in mice
number of mice out of the 10 in the group that were not protected from lethal infection (S. aureus (ATCC 13709); mouse, in vivo): 1/10

COc1cc(CCNCCOC2C(OC3C(O)C(N)CC(N)C3OC3OC(CO)C(O)C(O)C3N)OC(CO)C2OC2OC(CN)C(O)C(O)C2N)cc(OC)c1 (stereo not drawn) [IBIS00561192]
MIC E. Coli. (E. Coli): 10 to 20 µM
MIC S. Aureus (S. Aureus): 5 to 10 µM
